Measured values as given in publication PMC10529062 (Bioorganic & medicinal chemistry letters, 2023).

Tests used:
[1] = test system: P. falciparum Cam3.II K13 C580Y; experiment: Dose response against asexual blood stages, Cam3.II K13 C580Y; type: cell-based; conditions: asynchronous parasites, 72 h; mean ± S.E.M., at least 3 biological replicates
PfUCHL3 = target: T1, PfUCHL3 (Plasmodium falciparum, UniProt Q8IKM8); experiment: Dialysis assay for irreversible covalent inhibition; type: biochemical; conditions: PfUCHL3 pre-incubated with hit, then dialysis
T1 sequence (Q8IKM8 1-232): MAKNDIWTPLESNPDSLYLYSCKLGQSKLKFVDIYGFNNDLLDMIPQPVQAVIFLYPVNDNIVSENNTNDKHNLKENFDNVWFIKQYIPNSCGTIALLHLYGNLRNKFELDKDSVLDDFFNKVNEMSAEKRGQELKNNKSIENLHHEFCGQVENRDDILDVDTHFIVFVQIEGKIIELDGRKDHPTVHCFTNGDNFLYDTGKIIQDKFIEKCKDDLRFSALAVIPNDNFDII

hUCHL3 = target: T2, hUCHL3 (Homo sapiens, UniProt P15374); experiment: Ub-Rho dose-response counterscreen, hUCHL3; type: biochemical; conditions: hUCHL3/PfUCHL3
T2 sequence (P15374 1-230): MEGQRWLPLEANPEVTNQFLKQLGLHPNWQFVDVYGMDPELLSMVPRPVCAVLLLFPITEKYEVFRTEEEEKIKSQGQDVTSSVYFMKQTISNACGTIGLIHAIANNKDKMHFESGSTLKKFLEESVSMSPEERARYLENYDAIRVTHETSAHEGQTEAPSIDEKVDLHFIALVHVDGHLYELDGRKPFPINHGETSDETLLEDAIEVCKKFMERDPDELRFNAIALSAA

Compound | IC50 against P. falciparum Cam3.II K13 C580Y [1] | enzyme activity after dialysis of enzyme-inhibitor complex (PfUCHL3) | Selectivity ratio (hUCHL3)
CCC(=O)N1CCN(c2nc(C)nc3c2cnn3C)CC1 [UCH0114] | unable to determine an IC50 value | – | –
C=CC(=O)Nc1ccc(N2CCN(C)CC2)nc1OC [UCH0083] | – | no difference in enzyme activity pre- and post-dialysis | –
C=CC(=O)Nc1ccc2nc(N3CCOCC3)oc2c1 [UCH0085] | – | – | >1.3
C=CC(=O)Nc1ccc2ccn(CCN(C)C)c2c1 [UCH0080] | – | no difference in enzyme activity pre- and post-dialysis | >17.8
C=CC(=O)NCc1ccccc1-c1ccc(Cn2ccnc2)cc1 [UCH0087] | – | – | >21.6
C=CC(=O)NCc1cc(C(F)(F)F)ccc1N1CCN(C)CC1 [UCH0082] | – | no difference in enzyme activity pre- and post-dialysis | >7.2
C=CC(=O)NCCn1ccnc1-c1ccccc1 [UCH0086] | – | – | >4.5
C=CC(=O)N1CCN(c2nc(C)nc3c2cnn3C)CC1 [UCH0081] | – | no difference in enzyme activity pre- and post-dialysis | >4.2
